Results as given in publication PMC12714101, “CD160-Derived Peptide as a Bidirectional Inhibitor Toward Immune Checkpoints BTLA/HVEM and HVEM/LIGHT” (Journal of Medicinal Chemistry, 2025).
Where a SMILES comes first, the peptide text is derived from it.

Molecular target: T1, BTLA/HVEM complex (Homo sapiens, UniProt Q92956)
T1 construct: purchased ACROBiosystems HVM-H52E9 (HVEM-His); BTA-H5255 (BTLA-Fc)
T1 sequence (Q92956 39-202 limits assumed): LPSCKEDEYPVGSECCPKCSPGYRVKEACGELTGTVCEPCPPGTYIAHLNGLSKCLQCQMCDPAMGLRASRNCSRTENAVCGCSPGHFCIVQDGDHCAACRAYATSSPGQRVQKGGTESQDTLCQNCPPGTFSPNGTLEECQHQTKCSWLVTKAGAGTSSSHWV
Test: ELISA inhibition of BTLA/HVEM complex formation
Assay type: biochemical
Details: immobilized HVEM-His, BTLA-Fc 5 μg/mL, PBS-T, 37 °C, mean of three independent experiments; for inhibition at 16.67 µM: peptide 16.67 μM; for inhibition at 50 µM: peptide 50 μM; for inhibition at 150 µM: peptide 150 μM
Protocol: In the subsequent stage of the study, the potential of the obtained compounds to inhibit the interaction between BTLA and HVEM proteins was evaluated using ELISA, following the methodology described in our previous studies. , HVEM was immobilized on the plate and incubated with peptides at three different concentrations, followed by the addition of Fc-tagged BTLA. Detection was carried out using horseradish peroxidase (HRP) conjugated with anti-human IgG and 3,3′,5,5′-tetramethylbenzidine (TMB) as a substrate. Signal intensity was directly proportional to the amount of BTLA bound to HVEM and inversely proportional to the inhibitory activity of the tested peptides. As a control, BTLA and HVEM were incubated in the absence of peptides.
Recombinant human HVEM protein with a His tag was purchased from ACROBiosystems, Newark, DE, USA (no. HVM-H52E9). Recombinant human protein BTLA-Fc and LIGHT-Fc were also purchased from ACROBiosystems, Newark, DE, USA (no. BTA-H5255 and no. LIT-H5269).
ELISA was performed using transparent 96-well NUNC Maxisorp plates (Thermo Fisher Scientific, Waltham, MA, USA). In the first step, HVEM-His, dissolved in PBS at a concentration of 5 μg/mL (100 μL/well), was immobilized on the plate by overnight incubation at 4 °C. Wells were then blocked with 5% bovine serum albumin (BSA) in PBS containing 0.05% Tween 20 (PBS-T) (200 μL/well). Next, peptides dissolved in PBS-T at concentrations of 150, 50, and 16.67 μM were added to the wells (100 μL/well). Following this, BTLA-Fc in PBS-T at a concentration of 5 μg/mL (100 μL/well) was applied. In the next step, goat anti-human IgG antibody conjugated with the HRP (Bio-Rad Laboratories, Hercules, CA, USA) in PBS-T at a ratio of 1:30,000 (v/v) was added (100 μL/well). Colorimetric detection was performed by adding 100 μL of TMB substrate (Thermo Fisher Scientific, Waltham, MA, USA) to each well and incubating the plate in the dark. At each stage, plates were incubated at 37 °C with continuous shaking for 1 h (except TMB, which was incubated for 15 min). After each incubation, wells were washed five times with PBS-T. Absorbance was measured using an Infinite M200 Pro Reader (Tecan Group Ltd., Männedorf, Switzerland) at wavelengths of 650 nm (measurement wavelength) and 492 nm (reference wavelength). Inhibition assays for the HVEM/LIGHT complex were conducted using the same approach, except that LIGHT was used instead of BTLA. The BTLA/HVEM and HVEM/LIGHT complexes without peptides served as controls. Inhibition percentages were calculated based on the assumption that PBS-T has no effect on the formation of BTLA/HVEM or HVEM/LIGHT complexes. Each ELISA was conducted in at least three independent replicates. The data were analyzed using GraphPad Prism 8 software (San Diego, CA, USA).

SMILES | inhibition at 16.67 µM [%] | inhibition at 50 µM [%] | inhibition at 150 µM [%]
CC[C@H](NC(=O)[C@H](CC)NC(=O)[C@H](CCC(N)=O)NC(=O)[C@H](Cc1ccc(O)cc1)NC(C)=O)C(=O)N[C@@H](C)C(=O)N[C@@H](CCCNC(=N)N)C(=O)N[C@@H](CO)C(=O)N[C@@H](CCC(N)=O)C(=O)N[C@@H](CCCCN)C(=O)N[C@@H](CO)C(=O)NCC(=O)N[C@H](C(=O)N[C@@H](CCCNC(=N)N)C(=O)N[C@@H](CC(C)C)C(=O)N[C@@H](CCC(N)=O)C(=O)NCC(=O)N[C@@H](Cc1c[nH]cn1)C(=O)N[C@@H](Cc1ccccc1)C(=O)N[C@@H](Cc1ccccc1)C(N)=O)[C@@H](C)CC [A1, CD160(110–128)^(C112X,C113X)] (HELM PEPTIDE1{[ac].Y.Q.[Abu].[Abu].A.R.S.Q.K.S.G.I.R.L.Q.G.H.F.F.[am]}$$$$V2.0) | 4.31 | 6.28 | 7.44
CC[C@@H]1NC(=O)[C@H](CC)NC(=O)[C@@H](NC(=O)[C@H](Cc2ccc(O)cc2)NC(C)=O)CSSC[C@@H](C(=O)N[C@@H](Cc2ccccc2)C(N)=O)NC(=O)[C@H](Cc2c[nH]cn2)NC(=O)CNC(=O)[C@H](CCC(N)=O)NC(=O)[C@H](CC(C)C)NC(=O)[C@H](CCCNC(=N)N)NC(=O)[C@H]([C@@H](C)CC)NC(=O)CNC(=O)[C@H](CO)NC(=O)[C@H](CCCCN)NC(=O)[C@H](CCC(N)=O)NC(=O)[C@H](CO)NC(=O)[C@H](CCCNC(=N)N)NC(=O)[C@H](C)NC1=O [A2, CD160(110–128)^(Q111C,C112X,C113X,F127C)] (HELM PEPTIDE1{[ac].Y.C.[Abu].[Abu].A.R.S.Q.K.S.G.I.R.L.Q.G.H.C.F.[am]}$PEPTIDE1,PEPTIDE1,3:R3-19:R3$$$V2.0) | 1.45 | 3 | 2.26
CC[C@H](NC(=O)[C@H](CCC(N)=O)NC(=O)[C@H](Cc1ccc(O)cc1)NC(C)=O)C(=O)N[C@H]1CSSC[C@@H](C(=O)NCC(=O)N[C@@H](Cc2c[nH]cn2)C(=O)N[C@@H](Cc2ccccc2)C(=O)N[C@@H](Cc2ccccc2)C(N)=O)NC(=O)[C@H](CC(C)C)NC(=O)[C@H](CCCNC(=N)N)NC(=O)[C@H]([C@@H](C)CC)NC(=O)CNC(=O)[C@H](CO)NC(=O)[C@H](CCCCN)NC(=O)[C@H](CCC(N)=O)NC(=O)[C@H](CO)NC(=O)[C@H](CCCNC(=N)N)NC(=O)[C@H](C)NC1=O [A3, CD160(110–128)^(C112X,Q124C)] (HELM PEPTIDE1{[ac].Y.Q.[Abu].C.A.R.S.Q.K.S.G.I.R.L.C.G.H.F.F.[am]}$PEPTIDE1,PEPTIDE1,5:R3-16:R3$$$V2.0) | -0.96 | -0.72 | 3.85
CC[C@H](NC(=O)[C@H](CCC(N)=O)NC(=O)[C@H](Cc1ccc(O)cc1)NC(C)=O)C(=O)N[C@@H](CC)C(=O)N[C@H]1CSSC[C@@H](C(=O)N[C@@H](CCC(N)=O)C(=O)NCC(=O)N[C@@H](Cc2c[nH]cn2)C(=O)N[C@@H](Cc2ccccc2)C(=O)N[C@@H](Cc2ccccc2)C(N)=O)NC(=O)[C@H](CCCNC(=N)N)NC(=O)[C@H]([C@@H](C)CC)NC(=O)CNC(=O)[C@H](CO)NC(=O)[C@H](CCCCN)NC(=O)[C@H](CCC(N)=O)NC(=O)[C@H](CO)NC(=O)[C@H](CCCNC(=N)N)NC1=O [A4, CD160(110–128)^(C112X,C113X,A114C,L123C)] (HELM PEPTIDE1{[ac].Y.Q.[Abu].[Abu].C.R.S.Q.K.S.G.I.R.C.Q.G.H.F.F.[am]}$PEPTIDE1,PEPTIDE1,6:R3-15:R3$$$V2.0) | -2.23 | -0.34 | -1.77
CC[C@H](NC(=O)[C@H](CC(C)C)NC(=O)[C@H](Cc1ccccc1)NC(=O)[C@@H](NC(=O)[C@@H](NC(=O)[C@H](Cc1ccccc1)NC(C)=O)C(C)C)C(C)C)C(=O)N[C@@H](CCCCN)C(=O)N[C@@H](CC(=O)O)C(=O)N[C@@H](CCCNC(=N)N)C(=O)N[C@@H](CO)C(=O)NCC(=O)N[C@@H](CC(=O)O)C(=O)N[C@@H](CC)C(=O)N[C@@H](CO)C(=O)N1CCC[C@H]1C(=O)N[C@@H](CCC(=O)O)C(=O)N[C@H](C(=O)N[C@@H](CO)C(=O)N[C@@H](CC(C)C)C(=O)N[C@@H](CCCCN)C(=O)N[C@@H](CCC(N)=O)C(=O)N[C@@H](CC(C)C)C(=O)N[C@@H](CCCNC(=N)N)C(=O)N[C@@H](CC(C)C)C(N)=O)[C@@H](C)O [B1, CD160(56–79)^(C61X,C68X)] (HELM PEPTIDE1{[ac].F.V.V.F.L.[Abu].K.D.R.S.G.D.[Abu].S.P.E.T.S.L.K.Q.L.R.L.[am]}$$$$V2.0) | 1.49 | 4.68 | 
CC[C@@H]1NC(=O)[C@@H](NC(=O)[C@H](Cc2ccccc2)NC(=O)[C@@H](NC(=O)[C@@H](NC(=O)[C@H](Cc2ccccc2)NC(C)=O)C(C)C)C(C)C)CSSC[C@@H](C(=O)N[C@@H](CCCCN)C(=O)N[C@@H](CCC(N)=O)C(=O)N[C@@H](CC(C)C)C(=O)N[C@@H](CCCNC(=N)N)C(=O)N[C@@H](CC(C)C)C(N)=O)NC(=O)[C@H](CO)NC(=O)[C@H]([C@@H](C)O)NC(=O)[C@H](CCC(=O)O)NC(=O)[C@@H]2CCCN2C(=O)[C@H](CO)NC(=O)[C@H](CC)NC(=O)[C@H](CC(=O)O)NC(=O)CNC(=O)[C@H](CO)NC(=O)[C@H](CCCNC(=N)N)NC(=O)[C@H](CC(=O)O)NC(=O)[C@H](CCCCN)NC1=O [B3, CD160(56–79) ^(L60C,C61X,C68X,L74C)] (HELM PEPTIDE1{[ac].F.V.V.F.C.[Abu].K.D.R.S.G.D.[Abu].S.P.E.T.S.C.K.Q.L.R.L.[am]}$PEPTIDE1,PEPTIDE1,6:R3-20:R3$$$V2.0) | -4.44 | -5.5 | -4.74
CC[C@@H]1NC(=O)[C@H](CC(C)C)NC(=O)[C@@H](NC(=O)[C@@H](NC(=O)[C@@H](NC(=O)[C@H](Cc2ccccc2)NC(C)=O)C(C)C)C(C)C)CSSC[C@@H](C(=O)N[C@@H](CC(C)C)C(=O)N[C@@H](CCCNC(=N)N)C(=O)N[C@@H](CC(C)C)C(N)=O)NC(=O)[C@H](CCCCN)NC(=O)[C@H](CC(C)C)NC(=O)[C@H](CO)NC(=O)[C@H]([C@@H](C)O)NC(=O)[C@H](CCC(=O)O)NC(=O)[C@@H]2CCCN2C(=O)[C@H](CO)NC(=O)[C@H](CC)NC(=O)[C@H](CC(=O)O)NC(=O)CNC(=O)[C@H](CO)NC(=O)[C@H](CCCNC(=N)N)NC(=O)[C@H](CC(=O)O)NC(=O)[C@H](CCCCN)NC1=O [B4, CD160(56–79)^(F59C,C61X,C68X,Q76C)] (HELM PEPTIDE1{[ac].F.V.V.C.L.[Abu].K.D.R.S.G.D.[Abu].S.P.E.T.S.L.K.C.L.R.L.[am]}$PEPTIDE1,PEPTIDE1,5:R3-22:R3$$$V2.0) | -4.42 | 0.29 | 9.93
CC[C@H](NC(=O)[C@H](CC(C)C)NC(=O)[C@H](Cc1ccccc1)NC(C)=O)C(=O)N[C@@H](CCCCN)C(=O)N[C@@H](CC(=O)O)C(=O)N[C@@H](CCCNC(=N)N)C(=O)N[C@@H](CO)C(=O)NCC(=O)N[C@@H](CC(=O)O)C(=O)N[C@@H](CC)C(=O)N[C@@H](CO)C(=O)N1CCC[C@H]1C(=O)N[C@@H](CCC(=O)O)C(=O)N[C@H](C(=O)N[C@@H](CO)C(=O)N[C@@H](CC(C)C)C(=O)N[C@@H](CCCCN)C(N)=O)[C@@H](C)O [C1, CD160(59–75)^(C61X,C68X)] (HELM PEPTIDE1{[ac].F.L.[Abu].K.D.R.S.G.D.[Abu].S.P.E.T.S.L.K.[am]}$$$$V2.0) | 4.03 | 2.63 | 1.99
